Tests used:
[1] = biological target: T1, Amine oxidase [flavin-containing] A (Homo sapiens, UniProt P21397); type: functional
T1 sequence (P21397 whole entry): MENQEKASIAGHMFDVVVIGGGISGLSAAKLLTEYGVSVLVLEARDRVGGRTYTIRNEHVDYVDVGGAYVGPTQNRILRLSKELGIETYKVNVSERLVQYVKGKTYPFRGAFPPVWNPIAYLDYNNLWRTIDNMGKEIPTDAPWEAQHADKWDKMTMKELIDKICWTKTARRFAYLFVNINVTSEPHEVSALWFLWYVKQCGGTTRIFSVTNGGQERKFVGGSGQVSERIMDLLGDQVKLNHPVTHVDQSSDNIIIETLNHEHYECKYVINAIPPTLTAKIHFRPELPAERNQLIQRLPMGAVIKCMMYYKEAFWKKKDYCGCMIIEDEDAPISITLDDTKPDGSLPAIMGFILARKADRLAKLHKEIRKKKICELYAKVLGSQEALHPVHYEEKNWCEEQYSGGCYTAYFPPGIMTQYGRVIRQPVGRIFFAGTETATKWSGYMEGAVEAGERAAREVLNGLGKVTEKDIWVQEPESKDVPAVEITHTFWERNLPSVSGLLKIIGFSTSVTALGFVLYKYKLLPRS

D(3) dopamine receptor = D(3) dopamine receptor (Homo sapiens, UniProt P35462)
Chain of D(3) dopamine receptor (P35462 whole entry): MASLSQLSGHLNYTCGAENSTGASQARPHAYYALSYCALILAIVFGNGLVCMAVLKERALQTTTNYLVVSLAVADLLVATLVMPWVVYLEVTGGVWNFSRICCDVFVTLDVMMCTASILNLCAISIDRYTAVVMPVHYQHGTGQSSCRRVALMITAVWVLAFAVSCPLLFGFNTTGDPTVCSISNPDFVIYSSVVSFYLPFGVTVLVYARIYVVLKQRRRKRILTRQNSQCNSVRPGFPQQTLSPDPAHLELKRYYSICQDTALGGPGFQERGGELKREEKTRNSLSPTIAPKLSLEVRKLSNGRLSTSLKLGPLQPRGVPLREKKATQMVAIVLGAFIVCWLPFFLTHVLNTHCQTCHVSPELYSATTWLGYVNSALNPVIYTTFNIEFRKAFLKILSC

[2] = biological target: Kappa-type opioid receptor (Homo sapiens, UniProt P41145)
Chain of Kappa-type opioid receptor (P41145 whole entry): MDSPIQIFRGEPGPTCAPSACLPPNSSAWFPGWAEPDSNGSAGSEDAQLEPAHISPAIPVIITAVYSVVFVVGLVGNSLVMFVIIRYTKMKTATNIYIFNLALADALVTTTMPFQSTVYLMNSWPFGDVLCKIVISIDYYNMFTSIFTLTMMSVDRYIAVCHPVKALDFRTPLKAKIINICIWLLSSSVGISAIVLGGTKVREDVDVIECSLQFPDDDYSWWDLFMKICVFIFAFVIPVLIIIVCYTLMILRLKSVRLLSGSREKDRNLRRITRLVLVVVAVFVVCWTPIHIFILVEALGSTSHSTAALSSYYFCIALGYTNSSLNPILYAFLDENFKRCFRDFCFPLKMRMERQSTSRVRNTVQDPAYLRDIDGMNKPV

Cannabinoid receptor 1 [3] = biological target: T2, Cannabinoid receptor 1 (Homo sapiens, UniProt P21554)
T2 sequence (P21554 whole entry): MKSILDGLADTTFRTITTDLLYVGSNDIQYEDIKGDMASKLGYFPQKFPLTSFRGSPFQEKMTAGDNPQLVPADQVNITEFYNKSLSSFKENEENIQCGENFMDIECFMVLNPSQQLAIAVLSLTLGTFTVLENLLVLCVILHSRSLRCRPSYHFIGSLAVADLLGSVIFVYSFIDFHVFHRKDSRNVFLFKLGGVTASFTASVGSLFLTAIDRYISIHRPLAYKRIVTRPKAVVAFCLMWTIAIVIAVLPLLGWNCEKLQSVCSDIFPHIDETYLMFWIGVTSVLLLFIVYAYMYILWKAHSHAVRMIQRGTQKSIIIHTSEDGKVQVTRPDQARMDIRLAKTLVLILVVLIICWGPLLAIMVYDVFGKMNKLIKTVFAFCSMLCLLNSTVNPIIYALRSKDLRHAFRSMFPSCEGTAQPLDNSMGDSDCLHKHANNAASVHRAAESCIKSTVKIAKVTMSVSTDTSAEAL

[4] = biological target: T3, Type-1 angiotensin II receptor (Homo sapiens, UniProt P30556)
T3 sequence (P30556 whole entry): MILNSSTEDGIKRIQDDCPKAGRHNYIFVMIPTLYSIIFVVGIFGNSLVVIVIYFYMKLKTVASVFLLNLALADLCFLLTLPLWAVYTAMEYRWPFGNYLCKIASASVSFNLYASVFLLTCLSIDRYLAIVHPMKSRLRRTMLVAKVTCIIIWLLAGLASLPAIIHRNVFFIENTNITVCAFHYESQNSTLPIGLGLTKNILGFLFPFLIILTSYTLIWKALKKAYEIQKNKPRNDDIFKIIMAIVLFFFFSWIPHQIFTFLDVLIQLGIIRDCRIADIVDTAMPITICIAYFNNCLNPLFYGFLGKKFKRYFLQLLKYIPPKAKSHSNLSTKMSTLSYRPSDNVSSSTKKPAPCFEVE

Thromboxane A2 receptor = biological target: T4, Thromboxane A2 receptor (Homo sapiens, UniProt P21731)
T4 sequence (P21731 whole entry): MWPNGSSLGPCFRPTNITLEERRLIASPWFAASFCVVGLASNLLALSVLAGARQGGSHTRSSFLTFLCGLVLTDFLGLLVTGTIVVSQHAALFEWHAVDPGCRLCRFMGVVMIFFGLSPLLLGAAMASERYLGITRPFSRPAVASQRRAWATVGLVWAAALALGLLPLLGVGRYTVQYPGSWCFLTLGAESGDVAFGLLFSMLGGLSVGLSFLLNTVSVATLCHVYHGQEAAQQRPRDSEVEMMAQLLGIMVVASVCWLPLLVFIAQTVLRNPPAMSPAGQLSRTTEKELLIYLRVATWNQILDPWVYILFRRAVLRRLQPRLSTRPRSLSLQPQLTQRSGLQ

[5] = biological target: T5, Muscarinic acetylcholine receptor M2 (Homo sapiens, UniProt P08172); type: functional, cell-based
T5 sequence (P08172 whole entry): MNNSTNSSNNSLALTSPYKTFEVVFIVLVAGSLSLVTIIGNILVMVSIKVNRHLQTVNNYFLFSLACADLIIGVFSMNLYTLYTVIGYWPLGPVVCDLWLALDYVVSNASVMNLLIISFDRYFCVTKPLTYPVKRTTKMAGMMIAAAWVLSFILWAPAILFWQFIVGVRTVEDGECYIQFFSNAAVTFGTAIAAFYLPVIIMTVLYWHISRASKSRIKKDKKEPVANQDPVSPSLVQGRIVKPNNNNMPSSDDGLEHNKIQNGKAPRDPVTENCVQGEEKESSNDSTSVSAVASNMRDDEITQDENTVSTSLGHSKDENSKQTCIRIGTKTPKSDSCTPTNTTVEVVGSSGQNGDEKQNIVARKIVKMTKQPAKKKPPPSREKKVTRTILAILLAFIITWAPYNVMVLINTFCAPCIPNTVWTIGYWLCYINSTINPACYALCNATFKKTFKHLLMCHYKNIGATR

Cannabinoid receptor 1 [6] = biological target: T2, Cannabinoid receptor 1; type: functional, cell-based
[7] = biological target: Sodium-dependent noradrenaline transporter (Homo sapiens, UniProt P23975)
Chain of Sodium-dependent noradrenaline transporter (P23975 whole entry): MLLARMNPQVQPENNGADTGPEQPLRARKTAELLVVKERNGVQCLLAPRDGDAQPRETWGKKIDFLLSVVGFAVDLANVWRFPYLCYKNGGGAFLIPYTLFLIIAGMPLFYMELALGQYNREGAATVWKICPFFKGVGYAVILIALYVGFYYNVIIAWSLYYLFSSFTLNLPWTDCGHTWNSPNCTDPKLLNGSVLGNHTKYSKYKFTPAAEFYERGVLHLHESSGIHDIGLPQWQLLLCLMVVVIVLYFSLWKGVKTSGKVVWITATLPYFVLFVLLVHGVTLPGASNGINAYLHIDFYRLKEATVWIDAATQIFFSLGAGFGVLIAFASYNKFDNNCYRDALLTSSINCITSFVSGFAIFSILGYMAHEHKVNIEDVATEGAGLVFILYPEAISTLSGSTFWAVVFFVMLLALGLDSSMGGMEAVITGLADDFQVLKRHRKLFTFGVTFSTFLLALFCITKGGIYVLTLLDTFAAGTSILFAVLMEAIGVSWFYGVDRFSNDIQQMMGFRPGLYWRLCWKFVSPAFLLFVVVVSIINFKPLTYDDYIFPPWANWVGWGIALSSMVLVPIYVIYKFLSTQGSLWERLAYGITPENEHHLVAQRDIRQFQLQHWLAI

Melanocortin receptor 3 = Melanocortin receptor 3 (Homo sapiens, UniProt P41968)
Chain of Melanocortin receptor 3 (P41968 whole entry): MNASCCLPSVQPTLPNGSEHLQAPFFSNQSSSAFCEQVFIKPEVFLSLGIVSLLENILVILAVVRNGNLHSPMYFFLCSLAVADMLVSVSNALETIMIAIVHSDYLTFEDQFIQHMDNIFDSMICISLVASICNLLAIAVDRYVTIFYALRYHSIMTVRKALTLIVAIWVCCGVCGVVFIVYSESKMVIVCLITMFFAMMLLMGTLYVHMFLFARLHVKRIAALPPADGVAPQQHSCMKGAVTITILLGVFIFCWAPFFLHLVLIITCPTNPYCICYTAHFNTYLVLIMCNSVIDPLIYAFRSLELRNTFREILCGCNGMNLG

[8] = biological target: cGMP-inhibited 3',5'-cyclic phosphodiesterase 3A (Homo sapiens, UniProt Q14432); type: functional
Chain of cGMP-inhibited 3',5'-cyclic phosphodiesterase 3A (Q14432 whole entry): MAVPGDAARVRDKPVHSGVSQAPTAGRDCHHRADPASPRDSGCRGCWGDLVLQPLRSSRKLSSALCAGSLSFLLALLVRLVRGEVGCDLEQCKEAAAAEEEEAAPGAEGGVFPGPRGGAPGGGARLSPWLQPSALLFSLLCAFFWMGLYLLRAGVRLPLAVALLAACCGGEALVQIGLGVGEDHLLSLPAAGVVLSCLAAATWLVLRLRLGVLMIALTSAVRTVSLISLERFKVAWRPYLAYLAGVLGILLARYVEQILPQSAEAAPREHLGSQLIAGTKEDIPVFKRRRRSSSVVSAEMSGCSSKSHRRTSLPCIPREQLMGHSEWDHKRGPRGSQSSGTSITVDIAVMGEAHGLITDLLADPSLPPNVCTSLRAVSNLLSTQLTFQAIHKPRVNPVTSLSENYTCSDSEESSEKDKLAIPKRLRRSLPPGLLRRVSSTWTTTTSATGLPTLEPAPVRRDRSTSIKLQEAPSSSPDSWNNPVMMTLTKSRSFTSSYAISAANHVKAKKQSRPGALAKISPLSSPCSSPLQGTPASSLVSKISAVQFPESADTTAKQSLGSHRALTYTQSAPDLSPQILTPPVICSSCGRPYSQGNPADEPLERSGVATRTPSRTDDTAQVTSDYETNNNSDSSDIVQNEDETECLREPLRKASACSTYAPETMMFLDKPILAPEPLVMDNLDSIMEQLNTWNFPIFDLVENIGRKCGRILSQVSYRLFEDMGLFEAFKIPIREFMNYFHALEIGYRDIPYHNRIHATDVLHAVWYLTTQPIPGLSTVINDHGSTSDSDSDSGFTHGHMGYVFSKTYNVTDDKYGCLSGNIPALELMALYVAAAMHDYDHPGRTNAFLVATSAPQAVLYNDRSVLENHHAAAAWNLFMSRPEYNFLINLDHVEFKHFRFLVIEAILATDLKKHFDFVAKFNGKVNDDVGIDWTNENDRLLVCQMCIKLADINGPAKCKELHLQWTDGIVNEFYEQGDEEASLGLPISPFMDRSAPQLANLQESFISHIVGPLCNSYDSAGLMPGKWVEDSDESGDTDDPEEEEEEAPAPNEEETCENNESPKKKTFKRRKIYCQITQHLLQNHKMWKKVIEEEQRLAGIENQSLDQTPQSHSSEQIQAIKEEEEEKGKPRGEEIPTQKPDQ

[9] = biological target: 5-hydroxytryptamine receptor 2B (Homo sapiens, UniProt P41595); type: functional, cell-based
Chain of 5-hydroxytryptamine receptor 2B (P41595 whole entry): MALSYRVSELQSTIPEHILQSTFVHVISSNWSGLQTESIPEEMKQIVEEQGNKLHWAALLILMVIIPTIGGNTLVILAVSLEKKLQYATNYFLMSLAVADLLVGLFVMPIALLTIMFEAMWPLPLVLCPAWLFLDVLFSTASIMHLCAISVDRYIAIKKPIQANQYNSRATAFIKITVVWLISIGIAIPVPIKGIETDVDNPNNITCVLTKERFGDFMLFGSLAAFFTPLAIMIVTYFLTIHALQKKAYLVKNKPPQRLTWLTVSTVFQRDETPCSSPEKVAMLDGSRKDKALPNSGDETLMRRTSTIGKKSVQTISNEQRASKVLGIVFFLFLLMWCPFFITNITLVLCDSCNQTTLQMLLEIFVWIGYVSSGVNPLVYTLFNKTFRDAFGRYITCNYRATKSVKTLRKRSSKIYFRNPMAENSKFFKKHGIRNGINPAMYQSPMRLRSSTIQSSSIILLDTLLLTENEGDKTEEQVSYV
Further: assay procedure not described here.

Row | SMILES | AC50 [1] | AC50 (D(3) dopamine receptor) | AC50 [2] | AC50 (Cannabinoid receptor 1 [3]) | AC50 [4] | AC50 (Thromboxane A2 receptor) | AC50 [5] | AC50 (Cannabinoid receptor 1 [6]) | AC50 [7] | AC50 (Melanocortin receptor 3) | AC50 [8] | AC50 [9]
1 | CC(C)N(CCC(C(N)=O)(c1ccccc1)c1ccccn1)C(C)C (stereo unspecified) [DISOPYRAMIDE] | > 10 µM | > 30 µM | 6.73 µM | > 10 µM | > 30 µM | > 30 µM | > 10 µM | > 30 µM | > 30 µM | > 30 µM | 5.4 µM | > 10 µM
2 | C[C@]12C=CC(=O)N[C@@H]1CC[C@@H]1[C@@H]2CC[C@]2(C)[C@@H](C(=O)Nc3cc(C(F)(F)F)ccc3C(F)(F)F)CC[C@@H]12 [DUTASTERIDE] | > 10 µM | > 30 µM | > 10 µM | > 10 µM | > 30 µM | > 10 µM | > 10 µM | > 30 µM | > 10 µM | > 10 µM | > 30 µM | > 10 µM
3 | O=C1C(CC[S+]([O-])c2ccccc2)C(=O)N(c2ccccc2)N1c1ccccc1 (stereo unspecified) [SULFINPYRAZONE] | > 10 µM | > 30 µM | > 10 µM | > 10 µM | > 10 µM | > 10 µM | > 10 µM | > 30 µM | > 10 µM | > 10 µM | > 30 µM | > 30 µM
4 | Nc1ccc(S(=O)(=O)Nc2nccs2)cc1 [SULFATHIAZOLE] | > 10 µM | > 10 µM | > 10 µM | > 10 µM | > 30 µM | > 30 µM | > 10 µM | > 30 µM | > 10 µM | > 30 µM | > 30 µM | > 10 µM
5 | CO[C@H]1/C=C/O[C@@]2(C)Oc3c(C)c(O)c4c(O)c(c(/C=N/N5CCN(C)CC5)c(O)c4c3C2=O)NC(=O)/C(C)=C\C=C\[C@H](C)[C@H](O)[C@@H](C)[C@@H](O)[C@@H](C)[C@H](OC(C)=O)[C@@H]1C [RIFAMPIN] | > 30 µM | 11 µM | > 30 µM | > 30 µM | 19.4 µM | 17.4 µM | > 30 µM | > 30 µM | 20 µM | > 30 µM | 18.3 µM | > 30 µM
6 | CC(C)Cc1ccc(C(C)C(=O)O)cc1 (stereo unspecified) [IBUPROFEN] | > 10 µM | > 30 µM | > 10 µM | > 10 µM | > 30 µM | > 30 µM | > 10 µM | > 30 µM | > 30 µM | > 30 µM | > 30 µM | > 10 µM
7 | Cc1onc(-c2ccccc2)c1-c1ccc(S(N)(=O)=O)cc1 [VALDECOXIB] | > 10 µM | > 30 µM | > 10 µM | > 10 µM | > 30 µM | > 30 µM | > 10 µM | > 30 µM |  | > 30 µM | > 30 µM | > 10 µM
8 | O=C1CCc2cc(OCCCCc3nnnn3C3CCCCC3)ccc2N1 [CILOSTAZOL] | > 30 µM | > 30 µM | 3.06 µM | > 10 µM | > 30 µM | > 30 µM | > 30 µM | > 30 µM | > 30 µM | > 30 µM | 0.424 µM | > 30 µM
9 | C[C@H]1c2cccc(O)c2C(=O)C2=C(O)[C@]3(O)C(=O)C(C(N)=O)=C(O)[C@@H](N(C)C)[C@@H]3[C@@H](O)[C@@H]21 [DOXYCYCLINE] | > 10 µM | > 10 µM | > 10 µM | > 10 µM | > 30 µM | > 30 µM | > 10 µM | > 30 µM | > 10 µM | > 30 µM | > 30 µM | > 10 µM
10 | COc1ccccc1OCCNCC(O)COc1cccc2[nH]c3ccccc3c12 (stereo unspecified) [CARVEDILOL] | > 10 µM | 0.47 µM | 18.9 µM | > 10 µM | 0.255 µM | > 30 µM | > 10 µM | > 30 µM | 3.99 µM | 28.8 µM | > 30 µM | > 30 µM
11 | C=CC[C@@H]1/C=C(\C)C[C@H](C)C[C@H](OC)[C@H]2O[C@@](O)(C(=O)C(=O)N3CCCC[C@H]3C(=O)O[C@H](/C(C)=C/[C@@H]3CC[C@@H](O)[C@H](OC)C3)[C@H](C)[C@@H](O)CC1=O)[C@H](C)C[C@@H]2OC [TACROLIMUS ANHYDROUS] | > 30 µM | > 30 µM | > 10 µM | > 10 µM | > 30 µM | 15.3 µM | > 10 µM | > 30 µM | > 30 µM | > 30 µM | > 30 µM | > 30 µM
12 | C=C[C@H]1C[N@@]2CC[C@H]1C[C@@H]2[C@@H](O)c1ccnc2ccc(OC)cc12 [QUINIDINE] | > 10 µM | 2.8 µM | 4 µM | > 10 µM | > 30 µM |  | > 10 µM | > 30 µM | > 30 µM | > 30 µM | > 30 µM | 1.16 µM
13 | COc1ccc(CC2c3cc(OC)c(OC)cc3CC[N+]2(C)CCC(=O)OCCCCCOC(=O)CC[N+]2(C)CCc3cc(OC)c(OC)cc3C2Cc2ccc(OC)c(OC)c2)cc1OC (stereo unspecified) | > 30 µM | > 30 µM | 22 µM | > 30 µM | > 30 µM | > 30 µM | > 30 µM |  | 11.3 µM | > 30 µM | > 30 µM | > 30 µM
14 | COc1cc2nc(N3CCN(C(=O)C4CCCO4)CC3)nc(N)c2cc1OC (stereo unspecified) [TERAZOSIN] | > 10 µM | > 30 µM |  | > 10 µM | > 30 µM | > 30 µM | > 10 µM | > 30 µM | > 10 µM | > 30 µM | > 30 µM | > 10 µM
15 | O=C1CN(/N=C/c2ccc(-c3ccc([N+](=O)[O-])cc3)o2)C(O)=N1 [DANTROLENE] | > 10 µM | > 30 µM | > 10 µM | > 10 µM | > 10 µM | > 10 µM | > 10 µM |  | > 10 µM | > 10 µM | > 30 µM | > 10 µM
16 | C[C@@H](Oc1cc(-c2cnn(C3CCNCC3)c2)cnc1N)c1c(Cl)ccc(F)c1Cl [CRIZOTINIB] | 30 µM | > 30 µM |  | > 10 µM | 29 µM | > 30 µM | > 10 µM | > 30 µM | 7.96 µM | 19.9 µM | > 30 µM | > 30 µM

— ChEMBL document CHEMBL5291721, “A preclinical secondary pharmacology resource illuminates target-adverse drug reaction associations of marketed drugs” (Nat Commun, 2023)
